The series concerns the target T1, Hepatic sodium/bile acid cotransporter (Homo sapiens, UniProt Q14973).
T1 sequence (Q14973 whole entry): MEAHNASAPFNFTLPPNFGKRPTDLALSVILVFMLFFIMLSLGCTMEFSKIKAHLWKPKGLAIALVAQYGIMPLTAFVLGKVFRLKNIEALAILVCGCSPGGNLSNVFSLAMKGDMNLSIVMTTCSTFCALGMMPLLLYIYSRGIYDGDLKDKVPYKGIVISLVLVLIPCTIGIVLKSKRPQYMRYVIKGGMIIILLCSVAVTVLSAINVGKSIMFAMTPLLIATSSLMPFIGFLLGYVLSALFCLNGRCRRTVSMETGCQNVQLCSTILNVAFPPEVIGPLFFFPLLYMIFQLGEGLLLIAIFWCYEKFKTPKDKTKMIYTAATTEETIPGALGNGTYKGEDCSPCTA
As to the kind of experiment: TP_TRANSPORTER: uptake in Xenopus laevis oocytes. Format: functional, cell-based. The conditions noted are these: oocyte.

Turning to `C[C@]12CC[C@@H]3c4ccc(OS(=O)(=O)O)cc4CC[C@H]3[C@@H]1CCC2=O` [ESTRONE SULFURIC ACID], the Activity result is “substrate [+]”. For `C[C@H](CCC(=O)NCC(=O)O)[C@H]1CC[C@H]2[C@@H]3[C@H](O)C[C@@H]4C[C@H](O)CC[C@]4(C)[C@H]3C[C@H](O)[C@]12C` [GLYCOCHOLIC ACID], the Activity result is “substrate [+]”. The entry for `O=C1OC(c2ccc(O)c(S(=O)(=O)[O-])c2)(c2ccc(O)c(S(=O)(=O)[O-])c2)c2c(Br)c(Br)c(Br)c(Br)c21.[Na+].[Na+]` [SULFOBROMOPHTHALEIN SODIUM] is “substrate [+]”; for `C[C@H](CCC(=O)NCCS(=O)(=O)O)[C@H]1CC[C@H]2[C@@H]3[C@H](O)C[C@@H]4C[C@H](O)CC[C@]4(C)[C@H]3CC[C@]12C` [TAUROCHENODEOXYCHOLATE] it is “substrate [+]”.

In the case of `C[C@H](CCC(=O)NCCS(=O)(=O)O)[C@H]1CC[C@H]2[C@@H]3[C@@H](O)C[C@@H]4C[C@H](O)CC[C@]4(C)[C@H]3CC[C@]12C` [TAURURSODIOL], the Activity entry is “substrate [+]”.

For the origin of these results see ChEMBL document CHEMBL2074254, “Substrate specificity of sinusoidal bile acid and organic anion uptake systems in rat and human liver” (Hepatology, 1997).
